Test results published in paper PMC11576293, “New series of 4,6-diaryl pyrimidines: facile synthesis and antiproliferative activity as dual EGFR/VEGFR-2 inhibitors” (Frontiers in Chemistry, 2024).

Tests used:
[1] = test system: four cancer cell lines (A-549, MCF-7, Panc-1, HT-29); assay: Antiproliferative assay, average over four cancer cell lines; format: cell-based; conditions: Homo sapiens; average of the four cancer cell lines; read-out: Average IC50 (GI50)
Excerpt: Table 2 presents the four cancer cell lines’ median inhibitory concentration (IC50) and GI50 (average IC50) values.
(§1) The IC50 values were derived from dose-response tests. The reported data are derived from at least two independent studies, each comprising three replicates per concentration. See Supplementary Material A1 for more details.

[2] = test system: Panc-1; assay: Antiproliferative assay (MTT); format: cell-based; conditions: Homo sapiens, Panc-1 (pancreatic), read-out: Antiproliferative activity IC50 ± SEM, Panc-1
Excerpt: (§2) The MTT test was employed for this investigation ([Hisham et al., 2022]; [El-Sherief et al., 2019]; [Ramadan et al., 2020]). Table 2 presents the four cancer cell lines’ median inhibitory concentration (IC50) and GI50 (average IC50) values.
as §1, with “The MTT test was employed for this investigation ([Hisham et al., 2022]; [El-Sherief et al., 2019]; [Ramadan et al., 2020]). The IC50” for “The IC50”
(§3) (in 0.1% DMSO) were added (in 200 μL medium to yield a final concentration of 0.1% v/v) to the wells of plates. A single compound was designated with four wells followed by incubation of plates for 96h at 37°C. After incubation, medium was removed completely from the plates followed by addition of MTT (0.4 mg/mL in medium) to each well and subsequent incubation of plates for 3h. MTT (along with the medium) was removed and DMSO (150μL) was added to each well of the culture plates, followed by vertexing and subsequent measurement of absorbance (at 540 nm) using microplate reader. The data are shown as percentage inhibition of proliferation in comparison with controls containing 0.1% DMSO.
(§4) 4.2.1.2. Assay for antiproliferative effect […]
(§5) (10%) and 1 µg/mL each of aprotinin, leupeptin and pepstatin for 120 min. The purification was performed either at 4 °C or on ice. To record autophosphorylation level, EGFR kinase assay was carried out on the basis of DELFIA/Time-Resolved Fluorometry. The compounds were first
(§6) (1 picture or pasted object on this page, not shown here)

[3] = test system: MCF-7; assay: Antiproliferative assay (MTT); format: cell-based; conditions: Homo sapiens, MCF7, MCF-7 (breast), read-out: Antiproliferative activity IC50 ± SEM, MCF-7
Excerpt: as §2
as §1, with “The MTT test was employed for this investigation ([Hisham et al., 2022]; [El-Sherief et al., 2019]; [Ramadan et al., 2020]). The IC50” for “The IC50”
as §3, §4, §5, §6

[4] = test system: HT-29; assay: Antiproliferative assay (MTT); format: cell-based; conditions: Homo sapiens, HT-29 (colon), read-out: Antiproliferative activity IC50 ± SEM, HT-29
Excerpt: as §2
as §1, with “The MTT test was employed for this investigation ([Hisham et al., 2022]; [El-Sherief et al., 2019]; [Ramadan et al., 2020]). The IC50” for “The IC50”
as §3, §4, §5, §6

[5] = test system: A-549; assay: Antiproliferative assay (MTT); format: cell-based; conditions: Homo sapiens, A549, A-549 (lung), read-out: Antiproliferative activity IC50 ± SEM, A-549
Excerpt: as §2
as §1, with “The MTT test was employed for this investigation ([Hisham et al., 2022]; [El-Sherief et al., 2019]; [Ramadan et al., 2020]). The IC50” for “The IC50”
as §3, §4, §5, §6

[6] = Cell viability assay (MTT) on normal cells; format: cell-based; conditions: human, MCF-10A normal mammary gland epithelial cells, 4 days incubation
Experimental: (§7) This experiment examines the impact of the newly developed compounds 9–29 on normal cell lines to assess their safety level. The vitality of the investigated compounds was assessed using the MCF-10 A cell line, a normal human mammary gland epithelial cell line. Following 4 days of incubation on MCF-10 A cells with each examined compound at a concentration of 50 μM, the vitality of the cells was assessed using the MTT test ([Mahmoud et al., 2022]; [Mekheimer et al., 2022]).
as §7, with “The viability” for “The vitality”, “of 9–29” for “of the investigated compounds”, “2022]). Refer to Supplementary Material A1 for more details. […]” for “2022]).”
4.2. Biological evaluation
4.2.1. Cytotoxic activity using MTT Assay and evaluation of IC50
MTT assay was carried out to study the effect of compounds on mammary epithelial cells (MCF-10A). The medium in which cells were propagated contained Dulbecco's modified Eagle's medium (DMEM)/ Ham's F-12 medium (1:1) supplemented with epidermal growth factor (20 ng/mL), hydrocortisone (500 ng/mL), insulin (10 μg/mL), 2 mM glutamine and 10% foetal calf serum.
as §3, with “After every 2-3 days, the cells were passaged using trypsin ethylenediamine tetra acetic acid (EDTA). The cells were seeded at a density of 10^4 cells mL-1 in flat-bottomed culture plates containing 96 wells each. After 24 h, medium was removed from the plates and the compounds in (in 0.1%” for “(in 0.1%”, “0.1% DMSO. […]” for “0.1% DMSO.”

[7] = test system: Bcl-2; assay: Bcl-2 inhibition assay; format: cell-based, human; conditions: A-549 cell line
Experimental: 4.2.8. Bcl-2 inhibition assay
Mix all reagents thoroughly without foaming before use. Wash the microwells twice with approximately 300 μL Wash Buffer per well with thorough aspiration of microwell contents between washes. Take caution not to scratch the surface of the microwells. After the last wash, empty the wells and tap microwell strips on absorbent pad or paper towel to remove excess Wash Buffer. Use the microwell strips immediately after washing or place upside down on a wet absorbent paper for not longer than 15 minutes. […] Add 100 μL of Sample […]
Diluent in duplicate to all standard wells and to the blank wells. Prepare standard (1:2 dilution) in duplicate ranging from 32 ng/mL to 0.5 ng/mL. Add 100 μL of Sample Diluent, in duplicate, to the blank wells. Add 80 μL of Sample Diluent, in duplicate, to the sample wells. Add 20 μL of each Sample, in duplicate, to the designated wells. Add 50 μL of diluted biotin-conjugate to all wells, including the blank wells. Cover with a plate cover and incubate at room temperature, on a microplate shaker at 100 rpm if available, for 2 hours. Remove plate cover and empty the wells.
Wash microwell strips 3 times as described in step 2. Add 100 μL of diluted Streptavidin-HRP to all wells, including the blank wells. Cover with a plate cover and incubate at room temperature, on a microplate shaker at 100 rpm if available, for 1 hour. Remove plate cover and empty the wells.
Wash microwell strips 3 times as described in step 2. Proceed to the next step. Pipette 100 μl of mixed TMB Substrate Solution to all wells, including the blanks. Incubate the microwell strips at room temperature (18° to 25°C) for about 15 minutes, if available on a rotator set at 100 rpm.
Avoid direct exposure to intense light. The point, at which the substrate reaction is stopped, is often determined by the ELISA reader. Many ELISA readers record absorbance only up to 2.0
O.D. Therefore, the color development within individual microwells must be watched by the person running the assay and the substrate reaction stopped before positive wells are no longer properly detectable. Stop the enzyme reaction by quickly pipetting 100 μL of Stop Solution into each well, including the blank wells. It is important that the Stop Solution is spread quickly and uniformly throughout the microwells to completely inactivate the enzyme. Results must be read immediately after the Stop Solution is added or within one hour i f the microwell strips are stored at 2 - 8°C in the dark. Read absorbance of each microwell on a spectrophotometer using 450 nm as the primary wavelength.

[8] = test system: Bax; assay: Bax activation assay; format: cell-based, human; conditions: for Bax Conc: A-549 cancer cells
Experimental: 4.2.7. Bax activation assay
Bring all reagents, except the human Bax-α Standard, to room temperature for at least 30 minutes prior to opening. The human Bax-α Standard solution should not be left at room temperature for more than 10 minutes. All standards, controls and samples should be run in duplicate. Refer to the Assay Layout Sheet to determine the number of wells to be used and put any remaining wells with the desiccant back into the pouch and seal the ziploc. Store unused wells at 4 °C. Pipet 100 μL of Assay Buffer into the S0 (0 pg/mL standard) wells. Pipet 100 μL of Standards #1 through #6 into the appropriate wells. Pipet 100 μL of the Samples into the appropriate wells. Tap the plate gently to mix the contents. Seal the plate and incubate at room temperature on a plate shaker for 1 hour at ~500 rpm. Empty the contents of the wells and wash by adding 400 μL of wash solution to every well. Repeat the wash 4 more times for a total of 5 washes. After the final wash, empty or aspirate the wells and firmly tap the plate on a lint free paper towel to remove any remaining wash buffer.
Pipet 100 μL of yellow Antibody into each well, except the Blank. Seal the plate and incubate at room temperature on a plate shaker for 1 hour at ~500 rpm. Empty the contents of the wells and wash by adding 400 μL of wash solution to every well. Repeat the wash 4 more times for a total of 5 washes. After the final wash, empty or aspirate the wells and firmly tap the plate on a lint free paper towel to remove any remaining wash buffer. Add 100 μL of blue Conjugate to each well, except the Blank. Seal the plate and incubate at room temperature on a plate shaker for 30 minutes […]
Pipet 100 μL of Substrate Solution into each well. Incubate for 30 minutes at room temperature on a plate shaker at ~500 rpm. Pipet 100 μL Stop Solution to each well. Blank the plate reader against the Blank wells, read the optical density at 450 nm. Calculate the average net Optical Density (OD) bound for each standard and sample by subtracting the average Blank OD from the average OD for each standard and sample. Using linear graph paper, plot the Average Net OD for each standard versus Bax concentration in each standard. Approximate a straight line through the points.
The concentration of Bax in the unknowns can be determined by interpolation. […]

For `COc1ccc(-c2cc(-c3cccc(OC)c3)nc(SCc3ccccc3)n2)cc1` [Compound 21, 2-(Benzylthio)-6-(3-methoxyphenyl)-4-(4-methoxyphenyl)pyrimidine], the melting point was 245 to 247 °C, the IC50 [1] was 83 nM and the IC50 [2] was 82 ± 8 nM. For the same compound, the IC50 [3] was 86 ± 8 nM, the IC50 [4] was 82 ± 8 nM and the IC50 [5] was 83 ± 7 nM. For the same compound, the viability at 4 days, 50 µM [6] was 89%.
In the case of `C#Cc1cccc(Nc2ncnc3cc(OCCOC)c(OCCOC)cc23)c1` [Erlotinib, reference compound], the IC50 [2] is reported as 30 ± 3 nM, the IC50 [3] is reported as 40 ± 3 nM and the IC50 [4] is reported as 30 ± 3 nM. The IC50 [5] was 30 ± 3 nM.
For `CN[C@@H]1C[C@H]2O[C@@](C)([C@@H]1OC)n1c3ccccc3c3c4c(c5c6ccccc6n2c5c31)C(=O)NC4` [Staurosporine, reference compound], the “Bcl-2 Conc” value [7] was 1.10 ng/mL, the “Bcl-2 Fold reduction” value ([7]; versus control) was 5 fold and the “Bax Conc” value [8] was 280 ± 5 pg/mL. For the same compound, the “Bax Conc” value ([8]; listed as staurosporine) was 280 pg/mL and the “Bax Fold change” value ([8]; compared to untreated A-549 cancer cells) was 35 fold.
